The values that follow come from a melting point compilation (Tetko et al.; mined from patent text by program, amines drawn as free bases though some values may be those of a salt).

The structures appear in SMILES notation. Bounds are passed on as bounds.

As to `CCOC(=O)NC(=S)SCc1ccc(Cl)cc1`, the melting point came to 80 °C. With `CCOC(=O)c1nc2ccccc2n1[C@@H]1CC(C)(C)Oc2ccc(C#N)cc21` the figure was 169 to 171 °C; with `CC(=O)NNc1ccc([N+](=O)[O-])cn1`, 226 to 227 °C; with `C#CCOc1cc(N)c(F)cc1Cl`, 61 to 61.5 °C.

In turn, `C=C(C)C(=O)NCCCNC(=O)CC(C)=O` yielded a melting point of 93 to 94 °C. In turn, `Cc1cccc(C)c1N(CCCC(=O)O)C(=O)CCCN(C(=O)c1ccc(Cl)cc1)c1c(C)cccc1C` displayed a melting point of 129 to 131 °C. The compound `O=C(Nc1ccc(OC(F)(F)F)c(Br)c1)C(F)(F)F` gave a melting point of 64 to 66 °C. With `O=S(=O)(NCC1CCC(NCC2CCc3ccccc3C2)CC1)c1ccc2ccccc2c1` (centres undefined) the figure was 114 to 115 °C; with `OCc1ccc(Nc2nc(Oc3ccccc3)nc(Oc3ccccc3)n2)cc1`, 152 to 154 °C; with `COc1cc([N+](=O)[O-])c2ncc(C)cc2c1`, 173 to 175 °C. For `CC(=O)Nc1cc(C(F)(F)F)ccc1-c1cc(Oc2ccc3cccnc3c2)ncn1`, the melting point is 137 to 138 °C. As to `Clc1cccc(CSc2nnc(-c3ccc4occc4c3)o2)c1`, the melting point was 125 to 126 °C.

Regarding `CN(C)CCN(C)C(=O)Cn1nc(-c2ccccc2O)nc1-c1ccccc1O`, the melting point lay within 172 to 174 °C.

For `CC(C)(c1ccccc1)N(C(N)=O)C(C)(C)c1ccccc1`, the melting point lay within 226 to 227 °C. For the compound `Cc1c(C=NO)c2cc(Br)ccc2n1-c1ccc(O)cc1`, the melting point fell in the range of 209 to 211 °C. Consider `CC(C)(C)OC(=O)N1CCCCC1c1c[nH]c2ncccc12` (centres undefined), for which the melting point lay in the range of 144 to 145 °C. Take `COc1cc(OC)c2c(=O)[nH]c(-c3ccc(OCCNC(C)C)c(-c4ccc(C(=O)N(C)C)cc4)n3)nc2c1`: the melting point lay within 214 to 215 °C. For `ON=C1CCCOc2ccccc21`, the melting point fell in the range of 96 to 98 °C.

The compound `COc1ccc(-c2sc(C=NO)c(-c3cccc(OC)c3)c2C)cc1` showed a melting point of 122 to 141 °C. For `Nc1nc(N2CCOCC2)c2ncn(C3C=CC(CO)C3)c2n1` (centres undefined), the melting point lay within 165 to 167 °C.

`O=C(c1ccccc1)N1CCN(Cc2ccccc2)CCN1C(=O)c1ccccc1` came in with a melting point of 135 to 138 °C. For the compound `CSc1ccc(C(=O)CC(=O)C2CC2)c2c1OC(F)(F)O2`, the melting point is 46 to 47 °C.

Turning to `CC(C)(C)C1=NN(c2ccc(C(=O)O)cc2)C(c2ccc([N+](=O)[O-])cc2)C1` (centres undefined), the melting point turned out to be 245 °C. `Cc1ccccc1NC(=O)CN1CC2CCC(C1)N2S(=O)(=O)c1cccc2nsnc12`: the melting point is 169 to 170 °C. `CC1(C)C(=NOCc2ccccc2)C(c2ccc(S(C)(=O)=O)cc2)=C1c1ccccc1` gave a melting point of 56 to 61 °C. With `Cc1cc(-c2nc3cc(-c4ccncc4)cc(N)n3n2)oc1C` the figure was 275 to 277 °C; with `COC(=O)COC(=O)C(Cl)=Cc1cc(-n2ncc(C(F)(F)F)c(C)c2=O)c(F)cc1Cl`, 88 to 91 °C.

Regarding `CC(C)(C)OC(=O)NCC(=O)N1[C@@H](C(=O)OC(C)(C)C)CC[C@H]1c1ccccc1` (racemic), the melting point is 112 °C. On to `OCC(O)Cc1nccn1CCCc1cccc(OCc2coc(/C=C/c3ccc(F)cc3F)n2)c1` (centres undefined), for which the melting point is 92 to 94 °C.

For `Nc1ccc(-n2ccn(-c3ccc(OCC(F)(F)C(F)F)cc3)c2=O)cc1`, the melting point lay in the range of 178 to 179 °C. In turn, `CCOC(=O)c1cc2c(cc1OCC)C(=O)C=CC2=O` came in with a melting point of 60 to 62 °C.

With `CCCn1c(=O)n2c(=O)[nH]nc2c2[nH]cnc21`, the melting point is above 290 °C.

`OCc1nccc(N2CCCC2)n1` displayed a melting point of 114 to 116 °C.

`Cc1c(C(=O)O)ccc(=O)n1-c1ccc(Cl)cc1` registered a melting point of 271 to 273 °C. Consider `Cc1noc(C)c1S(=O)(=O)Nc1cc(-c2ncc(C(F)(F)F)cc2Cl)ccc1Cl`, for which the melting point was 161 to 162 °C. The compound `CCC(C)[C@H](NC(=O)OCC1CCCC1)C(=O)N[C@@H](Cc1ccccc1)C(=O)CSCc1ccco1` (some centres undefined) gave a melting point of 77 to 78 °C. In turn, `COc1cc(C(=O)n2c3c(c4ccccc42)CC(C(=O)O)CC3)cc(OC)c1OC` (centres undefined) registered a melting point of 234 to 236 °C. Compound `CCOC(=O)c1cc(N)cc(N)c1` returned a melting point of 77 to 78 °C. As for `CCOC(=O)c1sc2cc(COc3cccnc3)ccc2c1S(=O)c1cccc(OC)c1` (centres undefined), the melting point fell in the range of 113 to 115 °C. As to `CCCc1c(OCCCOc2cccc3c2CCCC3)ccc2c1OC(CCC(O)CO)(CCC(O)CO)CC2=O` (centres undefined), the melting point fell in the range of 113 to 115 °C. Compound `CC(=O)c1ccc(-c2ccc(Cl)cc2)c([N+](=O)[O-])c1` yielded a melting point of 103 to 105 °C.

On to `COc1ccc2[nH]c3ccccc3c2c1`, for which the melting point was in the range of 148 to 150 °C. With `CCCCCCNC(=S)NN=C(CCCCl)c1ccccc1` the figure was 42 to 44 °C; with `COc1cccc(SC2CC(=O)N2)c1` (centres undefined), 55 to 56 °C; with `Cc1oc(-c2ccccc2)nc1COc1cccc(CN(O)C(=O)N(C)O)c1`, 62 to 64 °C.

In turn, `OCc1nc2n(c1CO)-c1ccc(Cl)cc1C(c1ccccc1F)=NC2` gave a melting point of 222 °C. Compound `O=C(Nc1ccc(OCCN2CCOCC2)c2ccccc12)c1cc(F)cc(N2CCCCCC2)c1` yielded a melting point of 142 to 144 °C. The compound `O=C(NCCCCCC(=O)c1ncco1)c1cc2ccccc2[nH]1` yielded a melting point of 176 to 179 °C. For the compound `O=C1Nc2cccnc2N(CCCCCCN2CCCCC2)c2ccccc21`, the melting point fell in the range of 131 to 132 °C. In turn, `O=c1oc2cccnc2n1CCN1CCN(c2cccc(C(F)(F)F)c2)CC1` registered a melting point of 92 to 93 °C.

In the case of `CC(=O)OC1CSC(Oc2cncc(-c3c(C)noc3C)c2)C(OC(C)=O)C1OC(C)=O` (centres undefined), the melting point lay in the range of 129 to 131 °C. `CCOC(=O)C(=CN[C@@H](C)CO)C(=O)c1c(F)c(F)c(Br)c(F)c1F` displayed a melting point of 127 to 134 °C.

The compound `CC1(C)NC(=O)c2ccccc2N1CCCN1CCC(C(=O)c2ccc(F)cc2)CC1` returned a melting point of 186 °C. In turn, `Cc1[nH]cnc1C=C1CC2CCCn3c2c(c2ccccc23)C1=O` (centres undefined) registered a melting point of 289 to 290 °C. Regarding `COC(=O)N(CC(=O)Nc1ccc(S(N)(=O)=O)cc1Cl)c1ccccc1`, the melting point fell in the range of 196 to 198 °C. `CC(C)(C)OC(=O)NC(CCOP(=O)(Oc1ccccc1)Oc1ccccc1)C(=O)OCc1ccccc1` (racemic) returned a melting point of 63.5 to 64 °C. `O=C(O)c1cc(S(=O)(=O)N2CCCC(OCc3ccccc3)C2)ccc1Br` (centres undefined) had a melting point of 177 to 178 °C. For the compound `Cc1ccc(COc2cccnc2NC(=N)Nc2ccc(Cl)cc2)cc1`, the melting point lay in the range of 174 to 175 °C.

In turn, `CC(C)(C)c1ccc2nc(N3CCN(c4ncccc4C(F)(F)F)CC3)[nH]c2c1` returned a melting point of 247 to 249 °C. Compound `CC(=O)c1ccc2c(c1)CCC1(CC2)CC1` returned a melting point of 56 to 58 °C.

`COc1cc(C(=O)NS(=O)(=O)c2ccccc2)ccc1CBr` registered a melting point of 159 to 160 °C. Compound `Cc1ccc2c(C(=O)NC(C)C)c(NC(=O)c3cc(C(F)(F)F)nn3-c3ncccc3Cl)c(C)cc2n1` yielded a melting point above 240 °C. With `CCCCNC(=O)c1cccc(NC(=O)NS(=O)(=O)c2ccc(C)cc2)c1` the figure was 125 to 128 °C.

Consider `CCOC(=O)c1cnc2sccc2c1Sc1ccc(C)cc1`, for which the melting point lay within 60 to 63 °C.

Compound `CCc1c(N)c(C(N)=O)nn1CC1CC1` registered a melting point of 143 to 145 °C. `Cc1cccc(C)c1C(N)=NO` gave a melting point of 77 to 79 °C. In turn, `Cc1ccccc1OCC(O)COc1cccc2oc(C(=O)O)cc(=O)c12` (centres undefined) came in with a melting point of 95 to 97 °C.

Consider `Cc1nc(Cl)c([N+](=O)[O-])c(NCCOCCNC(=O)OC(C)(C)C)c1C`, for which the melting point is 70 to 73 °C. In the case of `C[Si](C)(C)C#Cc1cnn(-c2ccnc3cc(Cl)ccc23)c1`, the melting point lay in the range of 106 to 112 °C. In turn, `COc1cc(Nc2nccc(-c3ccc(NC4CCN(Cc5ccccc5)CC4)nc3)n2)cc(OC)c1OC` returned a melting point of 113 to 114 °C. On to `COC(=O)c1cc(O)c(N=Nc2ccccc2)c(OC(C)=O)c1`, for which the melting point is 162 °C.

With `CC(O)c1cc2c(n1C)C(=O)c1cccc(O)c1C2=O` (centres undefined), the melting point is 219 to 220 °C. The value for `CC[C@@H]1CN(c2c(F)c(N)c3c(=O)c(C(=O)O)cn(C4CC4)c3c2OC)CC[C@H]1O` (relative stereo) was 217 to 219 °C; that for `O=C(c1ccccc1)C1CCN(Cc2cncc(-c3ccccc3)c2)CC1` was 91 to 93 °C; that for `Cc1cc(N2CCN(c3ccccc3)CC2)c(C#N)c(Cl)n1` was 139 to 140 °C. In the case of `C[Si](C)(C)C#CCn1nc(-c2ccc(F)c(Br)c2)ncc1=O`, the melting point fell in the range of 103 to 105 °C. `NC(=O)CNC(=O)CN1CC(O)CC1=O` (centres undefined) returned a melting point of 158 to 160 °C. For `COc1ccc(CNc2ccc(O)c(C(=O)O)c2)cc1`, the melting point fell in the range of 205 to 206 °C.

In turn, `N#CC1(C#N)C2C=CC(C2)C1(Cl)C(F)(F)F` (centres undefined) came in with a melting point of 173 °C.

In turn, `Cc1cccc(N2CCOC2=O)c1COc1cccn2c(CO)c(C)nc12` displayed a melting point of 190 to 193 °C. With `COc1ccc(Cl)cc1-c1c(NCn2nnc3ccccc32)c(=O)[nH]c2ccc(C(F)(F)F)cc12` the figure was 217 to 219 °C; with `O=C(O)CC1(c2cccc(Cl)c2)CNC(=O)C1` (centres undefined), 178 to 181 °C; with `CC1CCCC(C(=O)c2[nH]c3cc(Cl)ccc3c2N)C1` (centres undefined), 140 to 142 °C. Consider `CCOC(=O)c1cc(-c2ccc3ccccc3c2)[nH]c1N`, for which the melting point is 149 to 151 °C.

Take `COc1ccccc1N1CCN(CCn2c(=O)[nH]c3ccc(O)c(O)c3c2=O)CC1`: the melting point was in the range of 223 to 227 °C. `COc1ccc(C(=O)Nc2ccc(F)c(F)c2)cc1NC(=S)Nc1cccc(C(=O)O)c1` had a melting point of 221 to 222 °C.

As to `COc1cc(C(=O)O)ccc1Cc1cn(C(C)C)c2ccc(CCCC(=O)N(C)C)cc12`, the melting point was in the range of 168 to 170 °C. With `O=C1C=CC(=Cc2cccs2)O1` the figure was 100 to 102 °C. The compound `CCCCCCCC1=CC(=O)N(Cc2ccccc2)C1(O)CBr` (centres undefined) gave a melting point of 94 to 96 °C.
